Test results published in ChEMBL document CHEMBL1201862, “PubChem BioAssay data set” (2004).
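Protocol summary: plate cells (96-well), add compound at 5 concentrations, incubate 48 h, interpolate endpoints linearly. Here, GI50 denotes the concentration required for 50% inhibition of growth.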 Active and inactive are the calls of the source. Cut-off read from the data, not from the text of the source: active = GI50 up to about 1.1 µM and inactive = higher. Residues, ends and D or L forms follow the SMILES beside them. *: point of attachment. Boc = CC(C)(C)OC(=O)*; Bz = O=C(c1ccccc1)*

Columns and labels:
Assay in all cases: NCI anticancer screen, dose series, 48 h
TK-10 = system: TK-10
MDA-MB-435 = system: MDA-MB-435
RXF 393 = system: RXF 393
NCI-H23 = system: NCI-H23
SF-539 = system: SF-539
KM12 = system: KM12
MDA-N = system: MDA-N
SK-MEL-5 = system: SK-MEL-5
Malme-3M = system: Malme-3M
CCRF-CEM = system: CCRF-CEM
T47D = system: T47D
NCI-H522 = system: NCI-H522
HCT-15 = system: HCT-15
SNB-75 = system: SNB-75
PC-3 = system: PC-3
HOP-92 = system: HOP-92
HCT-116 = system: HCT-116
IGROV-1 = system: IGROV-1
SF-268 = system: SF-268
SK-OV-3 = system: SK-OV-3

| SMILES | GI50 (TK-10) | GI50 (MDA-MB-435) | GI50 (RXF 393) | GI50 (NCI-H23) | GI50 (SF-539) | GI50 (KM12) | GI50 (MDA-N) | GI50 (SK-MEL-5) | GI50 (Malme-3M) | GI50 (CCRF-CEM) | GI50 (T47D) | GI50 (NCI-H522) | GI50 (HCT-15) [µM] | GI50 (SNB-75) | GI50 (PC-3) | GI50 (HOP-92) | GI50 (HCT-116) | GI50 (IGROV-1) | GI50 (SF-268) | GI50 (SK-OV-3) |
| --- | --- | --- | --- | --- | --- | --- | --- | --- | --- | --- | --- | --- | --- | --- | --- | --- | --- | --- | --- | --- |
| O=C(O)CNCP(=O)(O)O [GLYPHOSATE] | > 100 µM (inactive) | > 100 µM (inactive) | > 100 µM (inactive) | > 100 µM (inactive) | > 100 µM (inactive) | > 100 µM (inactive) | > 100 µM (inactive) | > 100 µM (inactive) | > 100 µM (inactive) | > 100 µM (inactive) | > 100 µM (inactive) | > 100 µM (inactive) | > 100 | > 100 µM (inactive) | > 100 µM (inactive) | > 100 µM (inactive) | > 100 µM (inactive) | > 100 µM (inactive) | > 100 µM (inactive) | > 100 µM (inactive) |
| COC(=O)C1=NN2c3ccccc3CN([C@@H](C)c3ccccc3)C(=O)[C@H]2[C@@H]1C | 50.1 µM (inactive) | 32.1 µM (inactive) | 40.3 µM (inactive) | 33.1 µM (inactive) | 40.5 µM (inactive) | 31 µM (inactive) | 34.5 µM (inactive) | 12.6 µM (inactive) | 38.4 µM (inactive) | 0.743 µM (active) | 17 µM (inactive) | 21.1 µM (inactive) | 43.9 | 27.2 µM (inactive) | 23.8 µM (inactive) | 44.7 µM (inactive) | 33.7 µM (inactive) |  | 40.3 µM (inactive) | 62.5 µM (inactive) |
| Cc1c2c(OCC(O)CN3CCN(c4ccccc4)CC3)nn(C)c(=O)c2c(C)n1-c1ccccc1 (stereo not drawn) | 47.5 µM (inactive) | 29.4 µM (inactive) | 26.9 µM (inactive) | 20.5 µM (inactive) | 19.2 µM (inactive) | 29.3 µM (inactive) | 19.1 µM (inactive) | 16.6 µM (inactive) | 21.8 µM (inactive) | 31.2 µM (inactive) | 27.5 µM (inactive) | 20.6 µM (inactive) | 20.3 | 19.8 µM (inactive) | 22 µM (inactive) | 44.4 µM (inactive) | 17.5 µM (inactive) | 35.2 µM (inactive) | 26.2 µM (inactive) | 43 µM (inactive) |
| N#Cc1cnc(-n2[nH]c3c(c2=O)CCCC3)[nH]c1=O | 51.5 µM (inactive) | 54.5 µM (inactive) | > 100 µM (inactive) | 54.3 µM (inactive) | 43.9 µM (inactive) | 21.8 µM (inactive) | > 100 µM (inactive) | 48.1 µM (inactive) | 50 µM (inactive) | 31.9 µM (inactive) | > 100 µM (inactive) | 57.3 µM (inactive) | 41.1 | 0.264 µM (active) | 59.4 µM (inactive) | 35.2 µM (inactive) | 38 µM (inactive) | > 100 µM (inactive) | 46 µM (inactive) | 75.3 µM (inactive) |
| ClCC[N+]12CC[N+](CCCl)(CC1)C2 | > 100 µM (inactive) | > 100 µM (inactive) | > 100 µM (inactive) | > 100 µM (inactive) | > 100 µM (inactive) | > 100 µM (inactive) | > 100 µM (inactive) | > 100 µM (inactive) | > 100 µM (inactive) | > 100 µM (inactive) | > 100 µM (inactive) | > 100 µM (inactive) | > 100 | > 100 µM (inactive) | > 100 µM (inactive) | > 100 µM (inactive) | > 100 µM (inactive) | > 100 µM (inactive) | > 100 µM (inactive) | > 100 µM (inactive) |
| CC(C)/C=N\n1c(N)c(C#N)c(C#N)c1C(C)C | 22.5 µM (inactive) | 31.3 µM (inactive) | 18.1 µM (inactive) | 24 µM (inactive) | 18.9 µM (inactive) | 27 µM (inactive) | 18.6 µM (inactive) | 15.7 µM (inactive) | 22.8 µM (inactive) | 19.9 µM (inactive) | 16.5 µM (inactive) | 19.3 µM (inactive) | 24.3 | 4.67 µM (inactive) | 17.1 µM (inactive) | 13 µM (inactive) | 24.5 µM (inactive) | 18.3 µM (inactive) | 28.1 µM (inactive) | 45.1 µM (inactive) |
| CC(NC(=O)C(Cc1ccc(OC(=O)c2ccccc2)cc1)NC(=O)OC(C)(C)C)C(=O)NC(Cc1ccccc1)C(=O)NCC(N)=O (stereo not drawn) (Boc-Y(Bz)AFG-NH2; configuration not given here) | 20.8 µM (inactive) | 21.7 µM (inactive) | 20.9 µM (inactive) | 23.2 µM (inactive) | 24.9 µM (inactive) | 35.8 µM (inactive) | 25.8 µM (inactive) | 26.3 µM (inactive) | 20.8 µM (inactive) | 77.8 µM (inactive) | 20.9 µM (inactive) | 17.9 µM (inactive) | 53 | 22.8 µM (inactive) | 18 µM (inactive) | 23.6 µM (inactive) | 27.5 µM (inactive) | 20.4 µM (inactive) | 19.6 µM (inactive) | 19.2 µM (inactive) |
| Cc1ccc(C2=Nn3c(nc4sc(C)c(C)c4c3=O)SC2)cc1 | 23.3 µM (inactive) | > 100 µM (inactive) | > 100 µM (inactive) | > 100 µM (inactive) | > 100 µM (inactive) | > 100 µM (inactive) | > 100 µM (inactive) | > 100 µM (inactive) | > 100 µM (inactive) | > 10 µM (inactive) | > 100 µM (inactive) | > 100 µM (inactive) | > 100 | 56.4 µM (inactive) | > 100 µM (inactive) | > 100 µM (inactive) | > 100 µM (inactive) | > 100 µM (inactive) | > 100 µM (inactive) | > 100 µM (inactive) |
| c1ccc2c(c1)/C(=N\NC1=NCCN1)c1nc3ccccc3nc1-2 | 14.1 µM (inactive) | 6.32 µM (inactive) | 2.71 µM (inactive) | 8.73 µM (inactive) | 5.31 µM (inactive) | 3.88 µM (inactive) | 7.19 µM (inactive) | 2.6 µM (inactive) | 10.2 µM (inactive) | 3.8 µM (inactive) | 19 µM (inactive) | 2.84 µM (inactive) | 3.52 | 0.923 µM (active) | 2.56 µM (inactive) | 2.58 µM (inactive) | 0.863 µM (active) | 6.12 µM (inactive) | 6.67 µM (inactive) | 1.54 µM (inactive) |
| CC(=O)O[C@H]1CC[C@@]2(C)C(=CC[C@@H]3[C@@H]2CC[C@]2(C)c4c(C)n[nH]c4C[C@@H]32)C1 | 19.2 µM (inactive) | 16 µM (inactive) | 11.4 µM (inactive) | 14.1 µM (inactive) |  | 15.3 µM (inactive) | 20.1 µM (inactive) | 13.4 µM (inactive) | 3.75 µM (inactive) | 4.97 µM (inactive) | 9.53 µM (inactive) | 6.92 µM (inactive) | 15 | 12.2 µM (inactive) | 17.3 µM (inactive) | 21 µM (inactive) | 11.2 µM (inactive) | 20.8 µM (inactive) | 23.4 µM (inactive) | 26.9 µM (inactive) |
| COc1ccc2c(c1)CC[C@@H]1[C@@H]2CC[C@]2(C)/C(=N/OCCN3CCCC3)CC[C@@H]12 | 6.47 µM (inactive) | 0.91 µM (active) | 1.92 µM (inactive) | 5.94 µM (inactive) | 1.9 µM (inactive) | 2.42 µM (inactive) | 1.98 µM (inactive) | 1.9 µM (inactive) | 1.63 µM (inactive) | 1.49 µM (inactive) | 3.21 µM (inactive) | 3 µM (inactive) | 1.25 | 3 µM (inactive) | 3.85 µM (inactive) | 2.49 µM (inactive) | 1.78 µM (inactive) | 4.51 µM (inactive) | 4.07 µM (inactive) |  |
| C[C@@H](Br)[C@@H]1CC[C@H]2c3[nH]c4ccccc4c3CCN2C1 | 31.7 µM (inactive) | 16.3 µM (inactive) | 20.4 µM (inactive) | 20.5 µM (inactive) |  | 14.5 µM (inactive) | 19.4 µM (inactive) | 15.9 µM (inactive) | 18.8 µM (inactive) | 17.5 µM (inactive) | 16.5 µM (inactive) | 13.2 µM (inactive) | 17.5 | 18.5 µM (inactive) | 22.4 µM (inactive) | 18.1 µM (inactive) |  | 12.1 µM (inactive) | 26.8 µM (inactive) | 24.7 µM (inactive) |
| CCOC(=O)c1c(SC(=O)c2cc(OC)c(OC)c(OC)c2)n(-c2ccccc2)c(=S)n(-c2ccccc2)c1=O | > 100 µM (inactive) | > 100 µM (inactive) | > 100 µM (inactive) | > 100 µM (inactive) | > 100 µM (inactive) | > 100 µM (inactive) | > 100 µM (inactive) |  | 51.8 µM (inactive) | > 100 µM (inactive) | > 100 µM (inactive) | > 100 µM (inactive) | > 100 | > 100 µM (inactive) | > 100 µM (inactive) | > 100 µM (inactive) | > 100 µM (inactive) | > 100 µM (inactive) | > 100 µM (inactive) | > 100 µM (inactive) |
| Cc1ccc([N+](=O)[O-])cc1S(=O)(=O)Nc1ccc(C2=NOC(c3ccccc3)C2)cc1 (stereo not drawn) |  | 1.5 µM (inactive) | 1.82 µM (inactive) | 14.5 µM (inactive) | 9.77 µM (inactive) | 3.57 µM (inactive) | 1.99 µM (inactive) | 6.47 µM (inactive) | 8.63 µM (inactive) | 9.48 µM (inactive) | 5.77 µM (inactive) | 3.27 µM (inactive) | 4.11 | 8.18 µM (inactive) | 7.19 µM (inactive) | 15.7 µM (inactive) | 7.08 µM (inactive) | 5.48 µM (inactive) | 12.4 µM (inactive) | 11.5 µM (inactive) |
